In the pKa sets of Baltruschat and Czodrowski (2020):

Settings: acidic group

| Structure (SMILES) | pKa |
| --- | --- |
| O=C1COC(=O)C1Cl (stereo not given) | 2.13 |
| C[NH+](C)CCCCCCCCCCNC(=O)/C=N/O | 9.02 |
| Oc1cccc2cccnc12 | 9.77 |
| C=C=C(C)C(C)(C)C(=O)O | 4.55 |
| NC(=S)C(N)=S | 10.9 |
| O=C(O)C1=C(CO)CC1 | 4.16 |
| O=C(O)/C=C/CCl | 4.14 |
| NS(=O)(=O)C(F)(F)I | 6.79 |
| CN(C)C(=O)OCC(=O)O | 3.01 |
| Oc1ccc(O)c(Br)c1 | 8.67 |
| CCCCOC(=S)NC(C)=O | 9.25 |
| O=C(O)c1cnc(Cl)s1 | 3 |
| N#C[C@H]1CCCC[C@@H]1C(=O)O | 3.86 |

Second part, the molecule after the results:

| pKa | Structure (SMILES) |
| --- | --- |
| 4.39 | O=C(O)Cc1c[nH]c2ccccc12 |
| 3.17 | Cc1ccccc1OCC(=O)O |
| 7.65 | COc1cc(C(C)=O)ccc1O |
| 11.5 | COc1ccc(O)c(CN(C)C)c1 |
| 9.9 | CC(O)c1cccc(O)c1CO (stereo not given) |
| 3.77 | CCCSCC(=O)O |
| 9.65 | C[n+]1ccsc1N |
| 8.08 | Cc1cnc(C)c(O)c1C=O |
| 9.55 | S=c1[nH]c(SCc2ccccc2)c(-c2ccccc2)[nH]1 |
| 10.4 | O=C1CSc2ncnc(N3CCOCC3)c2N1 |
| 9.71 | Nc1ccccc1O |
| 2.4 | [NH3+][C@@H](Cc1c[nH]c[nH+]1)C(=O)NCC(=O)O |
| 8.88 | COc1ccc(NS(=O)(=O)c2ccccc2)cc1 |
| 3.41 | COc1csc(C(=O)O)c1 |
| 7.48 | Cn1c(=S)[nH]c2cncnc21 |

Same assay, conditions: basic group

| Structure (SMILES) | pKa |
| --- | --- |
| OCC1=CCN2CC[C@@H](O)[C@@H]12 | 8.92 |
| CCN1CCCC1C (stereo not given) | 10.6 |
| CCCCCC(C)(C)N | 10.8 |
| CC1CCCC(C)(C)N1C (stereo not given) | 10.8 |
| CC(C)([NH3+])C(N)=S | -8.75 |
| CCCCCCCCCCCCCCCCN(CCCCCCCCCCCCCCCC)C(=O)[C@H](C)NC(=O)[C@H](Cc1c[nH]cn1)NC(=O)CCCCC[N+](C)(C)C.[Br-] | 7.2 |
| Oc1cccc2cccnc12 | 5.02 |
| N[C@@H](C(=O)[O-])[C@H](O)C(=O)[O-] | 9 |
| NCc1cccnc1 | 8.33 |
| CC(C)(C)NC1CCCCC1 | 11.3 |
| CCN1[C@H](C)[C@@H]1C (stereo not given in full) | 8.57 |
| N#CCCN | 7.75 |
| CC(=O)OCCN(C)C | 8.3 |
| N=C(Sc1ccccc1)c1ccccc1 | 4.48 |
| NCCNCCO | 9.67 |
| CNCC(=O)N(C)C | 8.86 |

The next lines start with the values.

| pKa | Structure (SMILES) |
| --- | --- |
| 5.99 | Cc1cnc2c(ccc3c(C)ccnc32)c1C |
| 4.03 | O=C(NNc1ccc(Br)cc1)c1ccncc1 |
| -2.42 | CNc1ccc[n+](O)c1 |
| 4.62 | CC(C)CCNc1ncnc2[nH]ncc12 |
| 9.26 | C[C@@H](C=C(c1ccccc1)c1ccccc1)N(C)C |
| 8.7 | COc1ccc(O)c(CN(C)C)c1 |
| 9.44 | Cc1cc(N)c2ccccc2n1 |
| 5.31 | C[n+]1nc(-c2ccccc2)ccc1NCCN1CCOCC1 |
| 5.46 | Nc1cccc2ncccc12 |
| 4.1 | Cc1cnc(C)c(O)c1C=O |
| -3.31 | S=c1[nH]c(SCc2ccccc2)c(-c2ccccc2)[nH]1 |
| 1.53 | CN(C)S(=O)(=O)c1ccc(N)cc1 |
| 2.4 | Nc1cccc2nn([C@@H]3C[C@@H](O)[C@H](CO)O3)nc12 |
| 2.07 | O=C1CSc2ncnc(N3CCOCC3)c2N1 |
| 2.6 | O=Cc1cc(-c2ccccc2)nnc1NCC[NH+]1CCOCC1 |
| 4.5 | Cc1cccc2cc3ccccc3nc12 |

| pKa | Structure (SMILES) |
| --- | --- |
| 7.35 | CC(C)(C)n1ccnc1 |
| -0.44 | Brc1cnc2ccccc2c1 |
| 5.63 | Nc1ccc2ncccc2c1 |
| 4 | CC1=Nc2ccc(C)cc2N=C(C)C1 |
| 4.55 | Nc1ccccc1O |
| 4.6 | COCCCCNc1ccccc1 |
| 9.3 | CCCNC(=O)[C@H](Cc1c[nH]cn1)NC(=O)c1cccc(CNCCN)n1 |
| 3.03 | Clc1ccnc2c1ccc1c(Cl)ccnc12 |
| 5.18 | Nc1nc(NCCO)nc(NCCO)n1 |
| 3.7 | CCCCCc1cccnn1 |
| 6.31 | O=C(NCCN1CCOCC1)c1ccc(Cl)cc1 |
| 2.77 | CCOC(=O)c1cnc(N(C)C)s1 |
| 7.82 | CC(c1ccccc1)N1CC(O[Si](C)(C)C)C1 (stereo not given) |
| 2.5 | COc1ccncn1 |
| 8.48 | NCCC[n+]1ccc2c([N+](=O)[O-])cccc2c1 |
